Experimental findings from ChEMBL document CHEMBL4342436, “Artemisia: a promising plant for the treatment of cancer” (Bioorg Med Chem, 2020) are described below.

Data set [1] deals with HepG2. Briefly: Cytotoxicity against human HepG2 cells. It counts as functional, cell-based.
The subject of another data set is SK-MEL-2. Kind of data set: Cytotoxicity against human SK-MEL-2 cells. It counts as functional, cell-based.
The subject of the next data set is LNCaP. Briefly: Cytotoxicity against human LNCAP cells. The class given is functional, cell-based.
For data set [2], the system named is KB. Kind of data set: (§1) Cytotoxicity against human KB cells. It counts as functional, cell-based.
Data set [3] has as its system MCF7. Briefly: (§2) Cytotoxicity against human MCF7 cells. It counts as functional, cell-based.
Another data set relates to NCI-H460. Briefly: Cytotoxicity against human NCI-H460 cells after 24 hrs by MTT assay. It counts as functional, cell-based. Conditions: NCI-H460, 24 h.
Data set [4] has as its system HepG2. Kind of data set: Cytotoxicity against human HepG2 cells after 24 hrs by MTT assay. The class given is functional, cell-based. Conditions: HepG2, 24 h.
In data set [5] the test system is MCF7. Briefly: Cytotoxicity against human MCF7 cells after 24 hrs by MTT assay. The class given is functional, cell-based. Conditions: MCF7, 24 h.
The test system of data set [6] is MCF7. Kind of data set: Cytotoxicity against human MCF7 cells at 50 nM in presence of doxorubicin relative to control. The class given is functional.
The nature of data set [7]: Cytotoxicity against human PG100 cells assessed as cell viability at 955.2 ug/mL after 24 hrs by MTT assay relative to control. Conditions: read-out: Activity. It counts as functional.
The subject of a further data set is HeLa. Kind of data set: Cytotoxicity against human HeLa cells. It counts as functional, cell-based.
Another data set relates to P388. Briefly: Cytotoxicity against mouse P388 cells. It counts as functional. Conditions: read-out: ED50 (the source's name).
A further data set deals with SK-N-DZ. Briefly: Induction of apoptosis in human SK-N-DZ cells assessed as apoptotic cells at 300 uM after 72 hrs by Annexin V-FITC/propidium iodide staining based flow cytometric analysis relative to control. The class given is functional.
Data set [8] concerns KB. The description is as §1. The class given is functional. Conditions: read-out: ED50 (the source's name).
The subject of another data set is HT-29. Kind of data set: Cytotoxicity against human HT-29 cells. Conditions: read-out: ED50 (the source's name). The class given is functional.
The subject of another data set is BE(2)-C. Briefly: Induction of apoptosis in human BE(2)-C cells assessed as apoptotic cells at 300 uM after 72 hrs by Annexin V-FITC/propidium iodide staining based flow cytometric analysis relative to control. The class given is functional.
Data set [9] in a line: Growth inhibition of human A375M cells at 150 uM after 72 hrs by MTT assay relative to control. The class given is functional. Conditions: read-out: GI.
Data set [10] can be described thus: Cytotoxicity against rat pancreatic tumour cells assessed as reduction in cell viability after 24 hrs by MTT assay. It counts as functional, cell-based.
A short description of data set [11]: Growth inhibition of human A375P cells at 150 uM after 72 hrs by MTT assay relative to control. Conditions: read-out: GI. It counts as functional.
A further data set concerns Lymphocyte. Briefly: Induction of apoptosis in human Lymphocyte cells assessed as apoptotic cells at 2 ug/ml after 24 hrs by Annexin V-FITC/propidium iodide staining based fluorescence microscopic method relative to control. The class given is cell-based.
The test system of data set [12] is MCF7. Described as §2. It counts as functional. Conditions: read-out: ED50 (the source's name).
The next data set concerns SK-N-AS. Briefly: Induction of apoptosis in human SK-N-AS cells assessed as apoptotic cells at 300 uM after 72 hrs by Annexin V-FITC/propidium iodide staining based flow cytometric analysis relative to control. The class given is functional.
A short description of data set [13]: Induction of apoptosis in human SH-EP1 cells assessed as apoptotic cells at 300 uM after 72 hrs by Annexin V-FITC/propidium iodide staining based flow cytometric analysis relative to control. The class given is functional.
Data set [14] is described as follows: Antitumour activity against mouse mammary cancer cells transplanted in Balb/c mouse assessed as tumour size at 6 mg/kg, ip for 13 days. It counts as functional.
For the next data set, the system named is C6. Briefly: Induction of apoptosis in rat C6 cells assessed as apoptotic cells at 200 uM after 24 hr in presence of holo-transferrin by Annexin V-FITC/propidium iodide staining based flow cytometric analysis relative to control. The class given is functional.
Data set [15] in a line: Cytotoxicity against human U373 cells assessed as reduction in cell viability after 24 hrs by MTT assay. The class given is functional, cell-based, U-373MG ATCC. Conditions: U373 MG.
A further data set relates to PC-14. Kind of data set: Induction of apoptosis in human PC14 cells assessed as increase in apoptotic cells at 30 uM after 24 hrs by Annexin V-FITC/propidium iodide staining based flow cytometric analysis relative to control. It counts as functional.
Data set [16] is described as follows: Cytotoxicity against human U251/CP2 cells assessed as reduction in cell viability after 24 hrs by MTT assay. It counts as functional, cell-based. Conditions: U-251, 24 h.
Data set [17] relates to U-937. Briefly: Induction of apoptosis in human U937 cells assessed as increase in apoptotic cells at 60 uM after 24 hrs by Annexin V-FITC/propidium iodide staining based flow cytometric analysis relative to control. It counts as functional.
In data set [18] the test system is U-937. Briefly: Antitumour activity against human U937 cells xenografted in NOD/SCID mouse assessed as tumor growth inhibition at 50 mg/kg, ip for 20 days relative to control. Conditions: U-937, ip, 480 h, read-out: TGI. It counts as functional.
In a further data set the test system is HCT-116. Kind of data set: Induction of apoptosis in human HCT116 cells assessed as increase in apoptotic cells at 40 uM after 24 hrs by Annexin V-FITC/propidium iodide staining based flow cytometric analysis relative to control. It counts as functional.
A further data set deals with K562. Briefly: Cytotoxicity against human K562 cells. The class given is functional. Conditions: read-out: ED50 (the source's name).
For another data set, the system named is CCRF-CEM. Kind of data set: Cytotoxicity against human CCRF-CEM cells. Conditions: read-out: ED50 (the source's name). The class given is functional.
The test system of another data set is HL-60(TB). Kind of data set: Cytotoxicity against human HL-60(TB) cells. The class given is functional. Conditions: read-out: ED50 (the source's name).
The next data set deals with AGS. Briefly: Antiproliferative activity against human AGS cells assessed as reduction in cell viability after 24 hrs by CCK8 assay. The class given is functional, cell-based.
A further data set deals with U-87 MG. Kind of data set: Induction of apoptosis in human U87MG cells assessed as increase in apoptotic cells at 50 uM after 24 hrs by Annexin V-FITC/propidium iodide staining based flow cytometric analysis relative to control. It counts as functional, U-87MG ATCC.
The next data set has as its system HL-60. Briefly: Antiproliferative activity against human HL60 cells assessed as cell viability at 150 uM by MTT assay relative to control. It counts as functional. Conditions: read-out: Activity.
In a further data set the test system is SNU-638. Kind of data set: Antiproliferative activity against human SNU638 cells assessed as reduction in cell viability after 24 hrs by CCK8 assay. Conditions: SNU-638, 24 h. It counts as functional, cell-based.
Data set [19] can be described thus: Antiproliferative activity against human SNU601 cells assessed as reduction in cell viability after 24 hrs by CCK8 assay. It counts as functional, cell-based. Conditions: SNU-601, 24 h.
A short description of data set [20]: Antiproliferative activity against human SNU484 cells assessed as reduction in cell viability after 24 hrs by CCK8 assay. Conditions: SNU-484, 24 h. The class given is functional, cell-based.
The test system of the next data set is MKN-1. Kind of data set: Antiproliferative activity against human MKN1 cells assessed as reduction in cell viability after 24 hrs by CCK8 assay. The class given is functional, cell-based. Conditions: MKN-1, 24 h.
The next data set concerns MCF-10A. Briefly: Induction of apoptosis n human MCF10A transformed with RAS gene at 100 uM by flow cytometric analysis relative to control. It counts as functional.
The next data set has as its system THP-1. Briefly: Cytotoxicity against human THP1 cells after 48 hrs by trypan blue dye exclusion counting method. Conditions: THP-1, 48 h. The class given is functional, cell-based.
A short description of data set [21]: Cytotoxicity against human 95-D cells by SRB assay. The class given is functional, cell-based.

In brackets after ≈: the same amount, converted by molar mass.

Regarding `C=C1C(=O)O[C@H]2[C@H]1CC[C@@](C)(O)C1=C[C@@H](O)[C@@](C)(O)[C@@H]12`, the IC50 with HepG2 [1], in the data set on SK-MEL-2, in the data set with LNCaP, in the data set with KB [2] and in the data set with MCF7 [3] was over 100 µM throughout.

With `CC1=CC(=O)C2=C(C)C[C@@H](O[C@@H]3O[C@H](CO)[C@@H](O)[C@H](O)[C@H]3O)[C@@H]3[C@@H](OC(=O)[C@H]3C)[C@@H]12`, the IC50 with NCI-H460, with HepG2 [4] and with MCF7 [5] was 26.8 to 48.7 µM each time.

Turning to `CO[C@H]1O[C@@H]2O[C@@]3(C)CC[C@H]4[C@H](C)CC[C@@H]([C@H]1C)[C@@]24OO3`, the Activity in the data set with MCF7 [6] stood at 50%. Besides, the viability at 955.2 µg/mL in data set [7] is 5.55%.

`O=c1cc(-c2ccc(O)cc2)oc2cc(O)cc(O)c12` [APIGENIN] returned a half-inhibitory concentration (IC50) in the data set with HeLa of 6.09 µM.

Consider `C[C@@H]1CC[C@H]2[C@@H](C)C(=O)O[C@@H]3O[C@@]4(C)CC[C@@H]1[C@]32OO4` [ARTEMISININ], for which the EC50 with P388, in the data set on KB [8], with HT-29 and with MCF7 [12] was 1.25 to 9.62 µg/mL (≈ 4.43 to 34.1 µM) each time. The Activity is listed as 40% with SK-N-DZ; 42% in the data set with BE(2)-C; 70% in the data set with Lymphocyte; 22% in the data set on SK-N-AS; 23% in [13]. In addition, the inhibition of growth at 150 µM in data set [9] turned out to be 60%; in data set [11], 68%. Moreover, in [10], the 50% inhibitory concentration (IC50) amounted to 45 µM.

For `CCO[C@H]1O[C@@H]2O[C@@]3(C)CC[C@H]4[C@H](C)CC[C@@H]([C@H]1C)[C@@]24OO3` [ARTEMOTIL], the Activity in data set [14] was found to be 800 mm3.

Regarding `C[C@H]1[C@@H](O)O[C@@H]2O[C@@]3(C)CC[C@H]4[C@H](C)CC[C@@H]1[C@@]24OO3` [ARTENIMOL], the Activity in the data set with C6 amounted to 66.42%; with PC-14, 45%; in the data set with U-937 [17], 70%; in the data set with HCT-116, 48.3%. The IC50 in [15] and in data set [16] was 1.17 to 23.6 µg/mL (≈ 4.11 to 82.9 µM) each time. Also, in the data set on U-937 [18], the inhibition in vivo at 50 mg/kg was determined as 70%.

Take `C=C1C(=O)O[C@@H]2O[C@@]3(C)CC[C@H]4[C@H](C)CC[C@@H]1[C@@]24O3` [DEOXYARTEMISITENE]: the EC50 with K562 is 0.94 µg/mL (≈ 3.56 µM); in the data set with CCRF-CEM, 0.92 µg/mL (≈ 3.48 µM); with HL-60(TB), 0.62 µg/mL (≈ 2.35 µM).

For the compound `COc1ccc(-c2cc(=O)c3c(O)c(OC)c(O)cc3o2)cc1OC` [EUPATILIN], the IC50 (with AGS; in the data set with SNU-638; in data set [19]; in [20]; in the data set with MKN-1) was 50 to 100 µM in each case. In addition, the Activity in the data set on U-87 MG came to 40%. Besides, the viability at 150 µM in the data set with HL-60 worked out at 50%.

In the case of `COc1cc(-c2cc(=O)c3c(O)c(OC)c(O)cc3o2)ccc1O` [JACEOSIDINE], in the data set on MCF-10A, the Activity is given as 48.72%. The IC50 in the data set with THP-1 stood at 70.5 µM.

Take `O=c1cc(-c2ccc(O)c(O)c2)oc2cc(O)cc(O)c12` [LUTEOLIN]: the 50% inhibitory concentration (IC50) with HeLa was 16.3 µM.

For `CC1(C)CCC[C@@]2(C)[C@H]1[C@H](O)C=C1COC(=O)[C@@]12O` [STROBILACTONE A], the half-inhibitory concentration (IC50) in [21] was determined as 19.8 µM.
